According to patent US20150289512A1, “METHOD FOR PROMOTING PLANT GROWTH” (SUMITOMO CHEMICAL COMPANY, LIMITED, priority 2012, published 2015):

How the values were obtained:
Type in all cases: in vivo
Nicotiana benthamiana [1] = test: Test Example 5: growth promotion under low-temperature stress by hydroponics of Nicotiana benthamiana, 1 ppm; details: 1 ppm in medium, low-temperature stress 7 days at 1.5±1.0° C., green leaf area 3 days later, equation (1)
Procedure: (§1) Test for Evaluating Growth Promotion Under Low-Temperature Stress by Hydroponics of Nicotiana benthamiana
A DMSO solution, which contained one of the compounds 2, 4, 5, 6, 11, 12, 17, 20, 21, 28, 30, 34, 36, 37, 51, 52, 53, 55, 56, 58, 59, 60, 64, 65, 66, 68, 69, 70, 74, 77, 82, 83, 84, 86 and 87 of the present invention at a concentration of 1,000 ppm, was prepared. The DMSO solution of the compound of the present invention was added at a volume ratio of 1/1,000 to the Murashige•Scoog medium of a ½-fold concentration (a medium containing 2.3 g of mixed salts for the Murashige•Scoog medium (manufactured by Wako Pure Chemical Industries, Ltd.), 200 mg of Myo-inositol (manufactured by Sigma-Aldrich Co. LLC.), 2 mg of nicotinic acid (manufactured by Wako Pure Chemical Industries, Ltd.), 2 mg of pyridoxine hydrochloride (manufactured by Wako Pure Chemical Industries, Ltd.), 20 mg of thiamine hydrochloride (manufactured by Wako Pure Chemical Industries, Ltd.), 20 g of sucrose (manufactured by Wako Pure Chemical Industries, Ltd.), and 1 g of MES (manufactured by DOJINDO LABORATORIES) per 1 L of water and having pH adjusted to 5.8), thereby preparing a medium containing the compound of the present invention at a concentration of 1 ppm.
(§2) Seeds of Nicotiana benthamiana were seeded in the 5 μL of the medium and cultured overnight at 22° C. Thereafter, 45 μL of the medium containing the compound of the present invention at a concentration of 1 ppm was added thereto, and the seeds are cultured for 7 days at 22° C., an illuminance of 4,000 lux, and a day length of 16 hours, and the nursery plants raised from the Nicotiana benthamiana were treated with the compound. Moreover, instead of the above medium, a test plot, which was obtained by performing the same treatment by using a medium prepared by adding DMSO to the Murashige•Scoog medium of ½-fold concentration at a volume ratio of 1/1,000, was used as a control plot not treated with the compound.
(§3) The nursery plants of the Nicotiana benthamiana treated with the compound were subjected to low-temperature treatment by being cultivated for 7 days at 1.5±1.0° C., an illuminance of 2,000 lux, and a day length of 16 hours.
The nursery plants of the Nicotiana benthamiana having undergone the low-temperature stress treatment were cultured for 3 days at 22° C., an illuminance of 4,000 lux, and a day length of 16 hours. Thereafter, the area of green leaf was quantified by Scanalyzer HTS (manufactured by LemnaTec GmbH). Moreover, the value of the control plot not treated with the compound that had not yet been subjected to the low-temperature stress treatment was measured in the same manner. A value of a relative leaf area was calculated based on the following equation (1), and if the value of a relative leaf area was 5 or greater, the compound was evaluated to have a mitigating effect. As a result of the evaluation, it was confirmed that when the plant was treated with one of the compounds 2, 4, 5, 6, 11, 12, 17, 20, 21, 28, 30, 34, 36, 37, 51, 52, 53, 55, 56, 58, 59, 60, 64, 65, 66, 68, 69, 70, 74, 77, 82, 83, 84, 86 and 87 of the present invention at 1 ppm, the value of a relative leaf area was 5 or greater, compared to the area of green leaf of the control plot not treated with compound. Accordingly, it was confirmed that the treatment using the compound of the present invention brings about a growth promotion effect.
(§4) Relative leaf area=100*(a green area of a plot treated with the compound of the present invention−a green area of a control plot not treated with the compound of the present invention)/(a green area of a control plot not treated with the compound of the present invention that has not yet been subjected to low-temperature stress treatment−a green area of a control plot not treated with the compound of the present invention) Equation (1): […]

Nicotiana benthamiana [2] = test: Test Example 6: growth promotion under low-temperature stress by hydroponics of Nicotiana benthamiana, 0.1 ppm; details: 0.1 ppm in medium, low-temperature stress 7 days at 1.5±1.0° C., green leaf area 3 days later, equation (1)
Procedure: as §1
A DMSO solution, which contained one of the compounds 3, 7, 14, 16, 36, 39, 43, 45, 50, 52, 53, 54, 56, 57, 62, 63, 64, 65, 68, 69, 70, 71, 73, 74, 76, 77, 79, 80, 81, 84, 85, 86 and 87 of the present invention at a concentration of 100 ppm, was prepared. The DMSO solution of the compound of the present invention was added at a volume ratio of 1/1,000 to the Murashige•Scoog medium of a ½-fold concentration for the Murashige•Scoog medium (a medium containing 2.3 g of mixed salts (manufactured by Wako Pure Chemical Industries, Ltd.), 200 mg of Myo-inositol (manufactured by Sigma-Aldrich Co. LLC.), 2 mg of nicotinic acid (manufactured by Wako Pure Chemical Industries, Ltd.), 2 mg of pyridoxine hydrochloride (manufactured by Wako Pure Chemical Industries, Ltd.), 20 mg of thiamine hydrochloride (manufactured by Wako Pure Chemical Industries, Ltd.), 20 g of sucrose (manufactured by Wako Pure Chemical Industries, Ltd.), and 1 g of MES (manufactured by DOJINDO LABORATORIES) per 1 L of water and having pH adjusted to 5.8), thereby preparing a medium containing the compound of the present invention at a concentration of 0.1 ppm.
as §2, with “concentration of 0.1 ppm was” for “concentration of 1 ppm was”, “seeds are cultivated for 7” for “seeds are cultured for 7”, “the above medium a test” for “the above medium, a test”
as §3
The nursery plants of the Nicotiana benthamiana having undergone the low-temperature stress treatment were cultivated for 3 days at 22° C., an illuminance of 4,000 lux, and a day length of 16 hours. Thereafter, the area of green leaf was quantified by Scanalyzer HTS (manufactured by LemnaTec GmbH). Moreover, the value of the control plot not treated with the compound that had not yet been subjected to the low-temperature stress treatment was measured in the same manner. A value of a relative leaf area was calculated based on the following equation (1), and if the value of a relative leaf area was 5 or greater, the compound was evaluated to have a mitigating effect. As a result of the evaluation, it was confirmed that when the plant was treated with one of the compounds 3, 7, 14, 16, 36, 39, 43, 45, 50, 52, 53, 54, 56, 57, 62, 63, 64, 65, 68, 69, 70, 71, 73, 74, 76, 77, 79, 80, 81, 84, 85, 86 and 87 of the present invention at 0.1 ppm, the value of a relative leaf area was 5 or greater, compared to the area of green leaf of the control plot not treated with compound. Accordingly, it was confirmed that the treatment using the compound of the present invention brings about a growth promotion effect.
as §4, with “treatment−green” for “treatment−a green”

[3] = tested on: Corn seeds (variety: Pioneer 120 31P41); test: Test Example 14: growth promotion under low-temperature stress by soil drench treatment of corn; details: soil drench 20 ml, low-temperature stress 5 days at 2.5° C., health score 0-5, average of 4 individuals
Procedure: Test for Evaluating Growth Promotion Under Low-Temperature Stress by Soil Drench Treatment of Corn
Corn seeds (variety: Pioneer 120 31P41) were seeded in a culture soil (Aisai) in a plastic pot (φ55 mm×height of 58 mm), and cultivated for 7 days at 20-25° C., an illuminance of about 5,000 lux, and a day length of 16 hours.
A DMSO solution, which contained one of the compounds 1 to 9, 16, 17, 20, 23, 24, 28 to 32, 34, 45, 48, 50, 82 and 85 of the present invention at a concentration of 1,000-fold concentration of each test concentration, was prepared, and then diluted with distilled water to obtain each test solution. After that, 20 ml of the obtained test solution was used to perform soil drench treatment on the foot of the test plants. The test plants were cultivated for 2 days under the conditions of a temperature of 27° C., a humidity of 40-80%, an illuminance of about 5,000 lux, and a day length of 16 hours. This was used as a test plot treated with the compound. A plot having undergone the soil drench treatment with 20 ml of a 0.1% DMSO aqueous solution instead of the above DMSO solution containing the compound was used as an untreated control plot.
The plants having undergone the soil drench treatment were cultivated for 5 days under the conditions of a temperature of 2.5° C., a humidity of 40-80%, an illuminance of about 5,000 lux, and a day length of 16 hours, thereby exposing to low-temperature stress. After the exposure to the low-temperature stress, the plants were cultivated for 4 days under the conditions of a temperature of 27° C., a humidity of 40-80%, an illuminance of about 5,000 lux, and a day length of 16 hours.
After the cultivation, the health of each plant was scored according to the following evaluation index.
5: 4 or more leaves in which ⅔ or more of the area was healthy
4: 3 leaves in which ⅔ or more of the area was healthy
3: 2 leaves in which ⅔ or more of the area was healthy
2: 1 leaf in which ⅔ or more of the area was healthy
1: No leaf in which ⅔ or more of the area was healthy
An average of the scores of the health of 4 individuals was determined.

[4] = tested on: Rice (variety: Nipponbare); test: Test Example 1: promotion of root growth by hydroponics of rice, 10 ppm; details: hydroponic solution containing the test compound at 10 ppm, average of 4 or 5 individuals
In short: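 Surface-sterilised seeds germinated 3 days in the dark at 28° C in hydroponic solution with compound at 10 ppm, then grown 3 days hydroponically with compound at 10 ppm (26° C, 4,000 lux, 16 h day, 50% humidity). Seminal root length measured by image analysis, averaged over 4 or 5 plants per plot.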

COC(=O)c1nc2c(F)cc(F)cc2s1 [Compound 87]
relative leaf area (% of untreated control) at 1 ppm (Nicotiana benthamiana [1]): ≥ 5%
relative leaf area (% of untreated control) at 0.1 ppm (Nicotiana benthamiana [2]): ≥ 5%

COC(=O)c1nc2cc(C(F)(F)F)ccc2n1C [Compound 24, methyl 1-methyl-5-trifluoromethylbenzimidazole-2-carboxylate]
change in vivo at 10 ppm ([3]; Zea mays, 120 h, concentration tested 10 ppm, read-out: Relative value of score (%- untreated control plot)): > 5%

CCOC(=O)c1cc2cc(C(F)(F)F)ccc2[nH]1 [Compound 9]
Relative value of length of seminal root (%-untreated control plot) [4]: >5%
Relative value of score (%- untreated control plot) ([3]; concentration tested 3 ppm): >5%

CCOC(=O)c1nc2ccccc2s1 [Compound 31]
Relative value of score (%- untreated control plot) ([3]; concentration tested 0.3 ppm): >5%

O=C(O)c1nc2ccccc2s1 [Compound 32]
Relative value of length of seminal root (%-untreated control plot) [4]: >5%
Relative value of score (%- untreated control plot) ([3]; concentration tested 0.3 ppm): >5%

COC(=O)c1nc2ccccc2n1C [Compound 23]
Relative value of length of seminal root (%-untreated control plot) [4]: >5%
Relative value of score (%- untreated control plot) ([3]; concentration tested 10 ppm): >5%

CCOC(=O)c1oc2ccccc2c1C(F)(F)F [Compound 84]
change in vivo at 10 ppm ([4]; Oryza sativa, read-out: Relative value of length of seminal root (%-untreated control plot)): > 5%
relative leaf area (% of untreated control) at 1 ppm (Nicotiana benthamiana [1]): ≥ 5%
relative leaf area (% of untreated control) at 0.1 ppm (Nicotiana benthamiana [2]): ≥ 5%
